Test results: patent US20090118285A1, “USE OF KCNQ-OPENERS FOR TREATING OR REDUCING THE SYMPTOMS OF SCHIZOPHRENIA” (H. Lundbeck A/S, priority 2006, published 2009)

What was measured:
[1] = tested on: DA levels in the nucleus accumbens; assay: Microdialysis: DA levels in the nucleus accumbens of freely moving rats; format: in vivo, rat; details: 8.1 mg/kg s.c.
Source text: It is well-known that psychostimulants increase locomotor activity via an increase in extracellular DA levels in the nucleus accumbens, which is the terminal area of the mesolimbic DA projections (Guix et al., 1992, Neurosci. Lett., 138(1), 137-140; Moghaddam et al., 1989, Synapse, 4(2), 156-161). It is also known, that the antagonistic effect of antipsychotics on stimulant-induced hyperlocomotion is related to the effect of antipsychotics to inhibit the stimulated DA levels in the nucleus accumbens (Broderick et al., 2004, Prog. Neuropsychopharmacology and Biol. Psych., 28, 157-171). Thus, the nucleus accumbens is an accepted neuroanatomical site for testing reversal of positive symptoms of psychosis. […] The experiments were conducted such that the data may be associated with the behavioural data obtained above.
Subjects. Male Sprague-Dawley rats (Charles River), initially weighing 275-300 g, were used. The animals were housed under a 12-hr light/dark cycle under controlled conditions for regular in-door temperature (21±2° C.) and humidity (55±5%) with food and tap water available ad libitum.
Surgery. Animals were anaesthetized with hypnorm/dormicum (2 ml/kg s.c.) and intracerebral guide cannulas (CMA/12) were stereotaxically implanted, positioning the dialysis probe tip in the nucleus accumbens (co-ordinates: […] anterior to bregma, —1.2 mm lateral to bregma, 8.0 mm ventral to the dura). Anchor screws and acrylic cement was applied for fixation of the guide cannula. The body temperature of the animals was maintained at 37° C. by means of a rectal probe and a heating plate. The rats were allowed to recover from surgery for 2 days, housed singly in cages.
Experimental procedure. On the day of the experiment, a microdialysis probe (CMA/12, 0.5 mm diameter, 2 mm length) was inserted through the guide cannula of the conscious animal. The probes were connected to a microinjection pump via a dual channel swivel which allowed the animals unrestricted movements. Perfusion of the microdialysis probe with filtered Ringer solution (145 mM NaCl, 3 mM KCl, 1 mM MgCl2, 1.2 mM CaCl2) was maintained for the duration of the experiment at a constant flow rate of 1 μL/min. After 180 min of stabilisation, the experiments were initiated. Dialysates were collected every 20 min. After the experiments the rats were sacrificed by decapitation, their brains removed, frozen and sliced for probe placement verification.
Administration of compounds. […] Thirty min after the first administration dex-amphetamine sulphate (0.5 mg/kg s.c.) was administered.
Analysis of dialysate. The concentration of dopamine (DA) in the dialysates was assessed by means of HPLC with electrochemical detection. The dialysate constitutents were separated by reverse phase liquid chromatography (ODS 150×3 mm, […]). Mobile phase consisted of 90 mM NaH2PO4, 50 mM sodium citrate, 367 mg/l sodium 1-octanesulfonic acid, 50 μM EDTA and 8% acetonitrile (pH 4.0) at a flow rate of 0.5 ml/min. Electrochemical detection of DA was accomplished using a coulometric detector; potential set at E1=−75 mV and E2=300 mV (guard cell at 350 mV) (Coulochem II, ESA). The dialysate levels of DA in the three dialyse samples preceding the administration of compound were averaged and used as baseline level of DA (100%)

anticonvulsant tests = details: oral and intraperitoneal administration, rats and mice (Rostock et al. 1996); cited from earlier work
[2] = tested on: K(+) current in neuronal cells; details: cited from earlier work
KCNQ channels = details: Wuttke et al. 2005; cited from earlier work
[3] = tested on: dopaminergic neurons in the ventral tegmental area; details: ex vivo (Hansen et al. 2005); cited from earlier work
[4] = Inhibition of baseline motility in vehicle-pretreated, vehicle-challenged mice; details: NMRI, mouse, in vivo

SMILES: CCOC(=O)Nc1ccc(NCc2ccc(F)cc2)cc1N
- DA level in the nucleus accumbens, amphetamine + compound ([1]; time 0 min, freely moving rats): 96 ± 6 % of baseline
- DA level in the nucleus accumbens, amphetamine + compound ([1]; time 20 min, amphetamine 0.5 mg/kg s.c. 30 min after compound): 160 ± 11 % of baseline
- DA level in the nucleus accumbens, amphetamine + compound ([1]; time 40 min, amphetamine 0.5 mg/kg s.c. 30 min after compound): 241 ± 33 % of baseline
- DA level in the nucleus accumbens, amphetamine + compound ([1]; time 60 min, amphetamine 0.5 mg/kg s.c. 30 min after compound): 221 ± 26 % of baseline
- DA level in the nucleus accumbens, amphetamine + compound ([1]; time 80 min, amphetamine 0.5 mg/kg s.c. 30 min after compound): 217 ± 14 % of baseline
- DA level in the nucleus accumbens, amphetamine + compound ([1]; time 100 min, amphetamine 0.5 mg/kg s.c. 30 min after compound): 173 ± 9 % of baseline
- DA level in the nucleus accumbens, amphetamine + compound ([1]; time 120 min, amphetamine 0.5 mg/kg s.c. 30 min after compound): 139 ± 9 % of baseline
- DA level in the nucleus accumbens, amphetamine + compound ([1]; time 140 min, amphetamine 0.5 mg/kg s.c. 30 min after compound): 120 ± 9 % of baseline
- DA level in the nucleus accumbens, amphetamine + compound ([1]; time −20 min, freely moving rats): 99 ± 6 % of baseline
- DA level in the nucleus accumbens, amphetamine + compound ([1]; time −40 min, freely moving rats): 105 ± 3 % of baseline
- Activity in a range of anticonvulsant tests (anticonvulsant tests): active after oral and intraperitoneal administration in rats and mice in a range of anticonvulsant tests
- Activation of a K(+) current [2]: activate a K(+) current in neuronal cells
- Binding to KCNQ channels (KCNQ channels): bind to KCNQ channels
- Firing of dopaminergic neurons in the ventral tegmental area [3]: suppress the firing of dopaminergic neurons in the ventral tegmental area ex vivo
- ED50 at 30 min [4]: 7.6 mg/kg
